# Laboratory results as given in patent publication US5916873A, “Teicoplanin derivatives” (Eli Lilly and Company, priority 1998, dated 1999).
# Key:
# H. influR D/BL+ = format: cell-based, H. influ; settings: Table 2C; strain RD/BL+
# Procedure: (§1) The antibacterial efficacy of the present teicoplanin derivatives is illustrated by the following tables. The minimal inhibitory concentrations (MICs) were determined using a standard broth micro-dilution assay.
# [1] = system: vancomycin-resistant enterococci; test: mean geometric MIC, vancomycin-resistant enterococci, broth micro-dilution; format: cell-based, Enterococcus faecium and Enterococcus faecalis; settings: Table 3, representative vancomycin-resistant enterococci
# Procedure: as §1
# [2] = system: vancomycin-sensitive enterococci; test: mean geometric MIC, vancomycin-sensitive enterococci, broth micro-dilution; format: cell-based, Enterococcus faecium and Enterococcus faecalis; settings: Table 3, representative vancomycin-sensitive enterococci
# Procedure: as §1
# S. aureus SA1199 = test: standard broth micro-dilution MIC; format: cell-based; settings: Table 2A; strain SA1199
# Procedure: as §1
# St. pyro C203 = test: standard broth micro-dilution MIC; format: cell-based; settings: Table 2C; strain C203
# Procedure: as §1
# E. f. 2041 = test: standard broth micro-dilution MIC; format: cell-based; settings: Table 2B; strain 2041
# Procedure: as §1
# S. aureus 447 = test: standard broth micro-dilution MIC; format: cell-based; settings: Table 2A; strain 447
# Procedure: as §1
# St. pneumo P1 = test: standard broth micro-dilution MIC; format: cell-based; settings: Table 2C; strain P1
# Procedure: as §1
# S. h. 105 = test: standard broth micro-dilution MIC; format: cell-based; settings: Table 2B; strain 105
# Procedure: as §1
# S. aureus 491 = test: standard broth micro-dilution MIC; format: cell-based; settings: Table 2A; strain 491
# Procedure: as §1
# S. aureus 489 = test: standard broth micro-dilution MIC; format: cell-based; settings: Table 2A; strain 489
# Procedure: as §1
# E. f. 180-1 = test: standard broth micro-dilution MIC; format: cell-based; settings: Table 2B; strain 180-1
# Procedure: as §1
# S. aureus SA1199R = test: standard broth micro-dilution MIC; format: cell-based; settings: Table 2B; strain SA1199R
# Procedure: as §1
# S. aureus 446 = test: standard broth micro-dilution MIC; format: cell-based; settings: Table 2A; strain 446
# Procedure: as §1
# M. cat M12 = test: standard broth micro-dilution MIC; format: cell-based; settings: Table 2C; strain M12
# Procedure: as §1
# S. aureus X778 = test: standard broth micro-dilution MIC; format: cell-based; settings: Table 2A; strain X778
# Procedure: as §1
# E. f. 276 = test: standard broth micro-dilution MIC; format: cell-based; settings: Table 2C; strain 276
# Procedure: as §1
# E. gall. 245 = test: standard broth micro-dilution MIC; format: cell-based; settings: Table 2C; strain 245
# Procedure: as §1
# S. epi 270 = test: standard broth micro-dilution MIC; format: cell-based; settings: Table 2B; strain 270
# Procedure: as §1
# EC14 = test: standard broth micro-dilution MIC; format: cell-based; settings: Table 2C; strain EC14
# Procedure: as §1
# S. h. 415 = test: standard broth micro-dilution MIC; format: cell-based; settings: Table 2B; strain 415
# Procedure: as §1
# S. aureus SA1199B = test: standard broth micro-dilution MIC; format: cell-based; settings: Table 2B; strain SA1199B
# Procedure: as §1
# S. aureus X400 = test: standard broth micro-dilution MIC; format: cell-based; settings: Table 2A; strain X400
# Procedure: as §1
# H. influ RD = test: standard broth micro-dilution MIC; format: cell-based; settings: Table 2C; strain RD
# Procedure: as §1
# S. aureus S13E = test: standard broth micro-dilution MIC; format: cell-based; settings: Table 2A; strain S13E
# Procedure: as §1
# E. f. 180 = test: standard broth micro-dilution MIC; format: cell-based; settings: Table 2B; strain 180
# Procedure: as §1
Structure (SMILES),MIC H. influR D/BL+ (H. influR D/BL+) [µg/mL],Resist. MIC [1] [µg/mL],Sens. MIC [2] [µg/mL],MIC S. aureus SA1199 (S. aureus SA1199),MIC St. pyro C203 (St. pyro C203),MIC E. f. 2041 (E. f. 2041),MIC S. aureus 447 (S. aureus 447),MIC St. pneumo P1 (St. pneumo P1),MIC S. h. 105 (S. h. 105),MIC S. aureus 491 (S. aureus 491),MIC S. aureus 489 (S. aureus 489),MIC E. f. 180-1 (E. f. 180-1),MIC S. aureus SA1199R (S. aureus SA1199R),MIC S. aureus 446 (S. aureus 446),MIC M. cat M12 (M. cat M12),MIC S. aureus X778 (S. aureus X778),MIC E. f. 276 (E. f. 276),MIC E. gall. 245 (E. gall. 245),MIC S. epi 270 (S. epi 270),MIC EC14 (EC14) [µg/mL],further results
CCCCc1ccc(CNC2C(=O)NC3Cc4ccc(c(Cl)c4)Oc4cc5cc(c4OC4OC(CO)C(O)C(O)C4NCc4ccc(CCCC)cc4)Oc4ccc(cc4Cl)C(OC4OC(CO)C(O)C(O)C4NC(C)=O)C4NC(=O)C(NC(=O)C5NC(=O)C(NC3=O)c3cc(O)cc(c3)Oc3cc2ccc3O)c2ccc(O)c(c2)-c2c(OC3OC(CO)C(O)C(O)C3O)cc(O)cc2C(C(=O)O)NC4=O)cc1 (stereo not shown) [Example 5],1,0.84,0.25,0.25 µg/mL,≤ .06 µg/mL,≤ .06 µg/mL,0.5 µg/mL,≤ .06 µg/mL,0.125 µg/mL,0.25 µg/mL,0.5 µg/mL,≤ .06 µg/mL,≤ .06 µg/mL,0.5 µg/mL,≤ .06 µg/mL,0.25 µg/mL,≤ .06 µg/mL,≤ .06 µg/mL,0.25 µg/mL,> 64,MIC S. h. 415 (S. h. 415): 4 µg/mL; MIC S. aureus SA1199B (S. aureus SA1199B): 0.25 µg/mL; MIC S. aureus X400 (S. aureus X400): 0.25 µg/mL; MIC H. influ RD (H. influ RD): 64 µg/mL; MIC S. aureus S13E (S. aureus S13E): 1 µg/mL; MIC E. f. 180 (E. f. 180): ≤ .06 µg/mL
CC(=O)NC1C(OC2c3ccc(c(Cl)c3)Oc3cc4cc(c3OC3OC(CO)C(O)C(O)C3NCc3ccc5ccccc5c3)Oc3ccc(cc3Cl)CC3NC(=O)C(NCc5ccc6ccccc6c5)c5ccc(O)c(c5)Oc5cc(O)cc(c5)C(NC3=O)C(=O)NC4C(=O)NC3C(=O)NC2C(=O)NC(C(=O)O)c2cc(O)cc(OC4OC(CO)C(O)C(O)C4O)c2-c2cc3ccc2O)OC(CO)C(O)C1O (stereo not shown) [Example 6],1,3.4,0.11,≤ .06 µg/mL,≤ .06 µg/mL,≤ .06 µg/mL,≤ .06 µg/mL,≤ .06 µg/mL,≤ .06 µg/mL,≤ .06 µg/mL,≤ .06 µg/mL,≤ .06 µg/mL,≤ .06 µg/mL,≤ .06 µg/mL,≤ .06 µg/mL,≤ .06 µg/mL,≤ .06 µg/mL,≤ .06 µg/mL,≤ .06 µg/mL,> 64,MIC S. h. 415 (S. h. 415): 4 µg/mL; MIC S. aureus SA1199B (S. aureus SA1199B): ≤ .06 µg/mL; MIC S. aureus X400 (S. aureus X400): ≤ .06 µg/mL; MIC H. influ RD (H. influ RD): 16 µg/mL; MIC S. aureus S13E (S. aureus S13E): ≤ .06 µg/mL; MIC E. f. 180 (E. f. 180): 0.25 µg/mL
